Measured values as given in ChEMBL document CHEMBL1135337, “Synthesis and DNA binding properties of saturated distamycin analogues” (Bioorg Med Chem Lett, 2002).

system: Nucleic Acid; test: Concentration required for 50% displacement of ethidium bromide from p[dA]p[dT] in a fluorescence intercalator displacement (FID) assay; type: nucleic-acid assay

Row | C50 | Compound
1 | 5.1 µM | N=C(N)CCNC(=O)[C@@H]1C[C@@H](NC(=O)[C@@H]2C[C@@H](NC(=O)[C@@H]3C[C@@H](NC=O)CN3C(=O)OCc3ccccc3)CN2C(=O)OCc2ccccc2)CN1C(=O)OCc1ccccc1
2 | 8.55 µM | N=C(N)CCNC(=O)[C@@H]1C[C@@H](NC(=O)[C@@H]2C[C@@H](NC(=O)[C@@H]3C[C@@H](NC=O)CN3)CN2)CN1
3 | 4.7 µM | N=C(N)CCNC(=O)[C@H]1C[C@H](NC(=O)[C@H]2C[C@H](NC(=O)C3C[C@H](NC=O)CN3C(=O)OCc3ccccc3)CN2C(=O)OCc2ccccc2)CN1C(=O)OCc1ccccc1 (some centres undefined)
4 | 5.4 µM | N=C(N)CCNC(=O)[C@H]1C[C@H](NC(=O)[C@H]2C[C@H](NC(=O)[C@H]3C[C@H](NC=O)CO3)CO2)CO1
5 | 5.5 µM | N=C(N)CCNC(=O)[C@@H]1C[C@@H](NC(=O)[C@@H]2C[C@@H](NC(=O)[C@@H]3C[C@@H](NC=O)CO3)CO2)CO1
6 | 6.7 µM | CN1C[C@@H](NC(=O)[C@H]2C[C@H](NC(=O)[C@H]3C[C@H](NC=O)CN3C)CN2C)C[C@@H]1C(=O)NCCC(=N)N
7 | 0.46 µM | Cn1cc(NC(=O)c2cc(NC(=O)c3cc(NC=O)cn3C)cn2C)cc1C(=O)NCCC(=N)N
8 | 7.91 µM | N=C(N)CCNC(=O)[C@@H]1CC[C@@H](NC(=O)[C@@H]2CC[C@@H](NC(=O)[C@@H]3CC[C@@H](NC=O)C3)C2)C1
9 | 6.37 µM | N=C(N)CCNC(=O)[C@H]1C[C@H](NC(=O)[C@H]2C[C@H](NC(=O)[C@H]3C[C@H](NC=O)CN3)CN2)CN1
